Test results reported in patent US8372408B2, “Use of Phaeodactylum algae extract for depigmenting the skin” (LVMH Recherche, priority 2007, dated 2013).
Values joined by “and” are separate entries in the source; they are usually repeats but may differ in a detail not shown here. Equal entries are not always repeated. Residues, ends and D or L forms follow the SMILES beside them. *: point of attachment. Cbz = O=C(OCc1ccccc1)*

Key:
[1] = tested on: tyrosinase in MNT-1 melanocytes; experiment: Anti-tyrosinase western blot of treated MNT1 cells, bands quantified; assay type: cell-based, human; conditions: for amount of tyrosinase, change in words: 24 hours or 72 hours after treatment of MNT-1 melanocytes, FIGS. 4A and 4B; for Quantification of tyrosinase at 24 hours / Quantification of tyrosinase at 72 hours: western blot bands, control = 100 %, palmitic or linoleic acid 25 μM, Phaeodactylum 5 μg/ml, Mg132 120 nM where stated; for Quantification of tyrosinase at 24 hours: MNT1 lyzed at 24 hours; for Quantification of tyrosinase at 72 hours: MNT1 lyzed at 72 hours
Method: (§1) 2.2 Treatment of MNT1 in Order to Assay the Proteasome, the Ubiquitin Proteins and the Tyrosinase by Western Blotting
(§2) 10^6 MNT1 cells/dish 35 mm in diameter, in quadruplicate
(§3) Treatment on D1 • Linoleic acid 25 μM • Palmitic acid 25 μM • Phaeodactylum 5 μg/ml
(§4) +1% bovine serum albumin (BSA)+Vitamin E (Vitamin E) 50 μM+Vitamin C (Vitamin C) 1 mM • Linoleic acid 25 μM • Palmitic acid 25 μM • Phaeodactylum 5 μg/ml
(§5) Preparation of the Lyzates on D2, D3 and D4
(§6) Recovery of the cell lawn in 150 μl of Laemmli 2× buffer+1% DTT (10 mM) by scraping.
(§7) Electrophoresis of the proteins is performed in a polyacrylamide minigel 1 mm to […] thick, under denaturing and reducing conditions, in batch buffer according to the Laemmli method (1970). The gels containing 12% T, 2.7% C allow separation of the low molecular weight proteins ranging from 20 to 120 kDa. The gels containing 8% T; 2.7% C allow separation of the high molecular weight proteins from 35 to 250 kDa.
(§8) Next, this membrane is placed in contact with the primary antibody diluted to the optimum concentration in PBS-T with or without 5% milk (m/v) depending on the antibody, for 1 hour with stirring at room temperature or overnight at 4° C.
Under the action of peroxidase and an amplifier, the luminol is oxidized and goes into a transient excited state. Return to the ground state takes place by emission of photons, which strike an autoradiography film placed on the membrane.
(§9) The bands are quantified by means of the Gels Analysts 3.01 software.
Starting with cell extracts of MNT-1 melanocytes cultured under these various conditions, with the protocols defined in the “Materials and methods” section, the effects of the extracts of the alga Phaeodactylum tricornutum on the amount of tyrosinase and of its activity were characterized.

[2] = tested on: ubiquitin proteins in MNT-1 melanocyte line; experiment: Anti-ubiquitin western blot of treated MNT1 cells; assay type: cell-based, human; conditions: 24 hours or 72 hours after treatment, FIG. 3A, 3B
Method: as §1, §2, §3, §4, §5, §6, §7, §8
Under the action of peroxidase and an amplifier, the luminol is oxidized and goes into a transient excited state. […]
as §9

[3] = tested on: tyrosinase in B16F10 cells; conditions: cited from earlier work; for proteasome-dependent degradation of tyrosinase: B16F10 cells, Ando H. et al., J. Biol. Chem. (2004); for amount of melanin: melanocyte culture, previous study
[4] = tested on: 20S and 26S forms of the proteasome in MNT-1 melanocyte line; experiment: Anti-proteasome western blot of treated MNT1 cells; assay type: cell-based, human; conditions: lysis of MNT-1 24 hours and 72 hours after treatment, FIGS. 2A and 2B
Method: as §1, §2, §3, §4, §5, §6
Electrophoresis of the proteins is performed in a polyacrylamide minigel 1 mm to […] thick, under denaturing and reducing conditions, in batch buffer according to the Laemmli method (1970). […]
as §9
In parallel, using specific antibodies, the 20S and 26S forms of the proteasome were quantified by western blotting.
For the purpose of determining the cause of this activation of the peptidase activities of the proteasome, we evaluated via the western blotting technique the amount of proteasome in the homogenates obtained from the lysis of MNT-1 24 hours and 72 hours after their treatment with extracts of the alga Phaeodactylum tricornutum, with fatty acids, or with a proteasome-dependent proteolysis inhibitor Mg132).

| SMILES | amount of tyrosinase, change in words [1] | Quantification of tyrosinase at 24 hours [1] | Quantification of tyrosinase at 72 hours [1] | level of ubiquitin proteins [2] | proteasome-dependent degradation of tyrosinase [3] | amount of melanin [3] | amount of proteasome (expression or distribution of the 20S and 26S forms) [4] |
| --- | --- | --- | --- | --- | --- | --- | --- |
| CC(C)C[C@@H](C=O)NC(=O)[C@H](CC(C)C)NC(=O)[C@H](CC(C)C)NC(=O)OCc1ccccc1 [Control + Mg132, Z-Leu-Leu-Leu-CHO] (Cbz-Leu-Leu-Leu-aldehyde) | this decrease may be reversed | 100% | 100% |  |  |  |  |
| CCCCC/C=C\C/C=C\CCCCCCCC(=O)O [Linoleic acid] | significant decrease | 75% and 51% | 13% and 22% | not affected | stimulated | decrease | does not modify |
| CCCCCCCCCCCCCCCC(=O)O [Palmitic acid] |  | 135% and 127% | 62% and 88% |  | reduced | inverse effect |  |
